Laboratory results reported in article PMC5349447, “Applying a high-throughput fluorescence polarization assay for the discovery of chemical probes blocking La:RNA interactions in vitro and in cells” (PLoS ONE, 2017).

Columns and labels:
[1] = system: SCC 22A cells; set-up: method as in PMID 27105491; details: used as treatment concentration, read-out: cisplatin IC50; cited from earlier work
[2] = system: SCC 22B cells; assay: Cisplatin sensitization, CyQUANT, SCC 22B; format: cell-based, human; details: SCC 22B
Protocol: To test whether compound C2.01 sensitizes cells for cisplatin, cells were treated with 0.2% DMSO alone, cisplatin at 4, 8, 16, 32 or 64 μM concentration alone or in combination with 50 μM compound C2.01. The half maximal inhibitory concentration (IC50) of cisplatin was determined by treating SCC 22B cells with increasing cisplatin (Selleckchem) concentrations or vehicle (DMSO) for 48 h (96-well format) as described recently. For this experiments 1x10^4 SCC 22B cells were plated the day before the experiment. DMSO or C2.01 was added to a final concentration of DMSO (0.05%) and C2.01 (50 μM). Six hours later the different cisplatin concentrations were added. The highest DMSO concentration of 0.25% was used in the control for cisplatin and C2.01 double treatment. Subsequently, cells were washed twice with 1x PBS and quantified after staining with fluorescence dye (CyQUANT®, Life Technologies) 48 after the initial C2.01 treatment.

[3] = system: SCC 22B cells; assay: Cell toxicity, CyQUANT cell number, SCC 22B; format: cell-based, human; details: for effect on SCC 22B cell numbers: 48 h, 12.5-150 μM
Protocol: (§1) Normal fibroblast MRC5 and human embryonic kidney HEK293 cells were purchased from ATCC. Head and neck squamous cell carcinoma cell lines UM-SCC 22A (SCC 22A) and UM-SCC 22B (SCC 22B) were described elsewhere. MRC5 cells were cultured in EMEM plus 10% FBS; SCC 22A, SCC 22B, and HEK293 cells were cultured in advanced DMEM (Gibco) containing 2 mM L-glutamine (Life Technology) and 10% FBS. All cell lines were tested for mycoplasma contamination by applying a MycoSensor PCR Assay kit according to the manufacturer’s instructions (Agilent Technologies).
(§2) To test for cell toxicity the compounds were dissolved in 100% DMSO to a concentration of 100 mM. Subsequently, compounds were diluted in media to 10 mM (10% DMSO), 1 mM (1% DMSO) and tested at 150, 125, 100, 75, 50, 25 μM in SCC 22B and MRC5 cells. To reach this concentration compounds (stock 1 mM, 1% DMSO) were diluted in the cell culture dish (96-well format, 100 μl final volume) as follows: 150 μM = 6.7 fold (final DMSO: 0.15%); 125 μM = 8.0 fold (final DMSO: 0.125%); 100 μM = 10 fold (final DMSO: 0.1%); 75 μM = 13.3 fold (final DMSO: 0.075%); 50 μM = 20 fold (final DMSO: 0.05%); and 25 μM = 40 fold (final DMSO: 0.025%). As a control the highest DMSO concentration of 0.15% was used. Cells were cultured in appropriate media (see above) for 48h. Subsequently, cells were washed twice with 1x PBS and quantified after staining with fluorescence dye (CyQUANT®, Life Technologies). For this experiments 3x10^4 of MRC5 and 1x10^4 SCC 22B cells were plate the day before the experiment.

[4] = system: T1, La-WT:fD1-RNA complex; assay: EMSA, compound competition, La-WT:fD1; format: binding, human; details: La-WT 60 nM, fD1 50 nM
T1 construct: His; made in house; host or cells: E. coli BL21
Protocol: 12% native TBE polyacrylamide gels were prepared in a Mini-PROTEAN Tetra Handcast System (BioRad). The gel was pre-run for 30 min at 140 V in 1x TBE buffer (45 mM Tris/HCl pH 8.5, 45 mM boric acid, 1 mM EDTA). To prepare the RNA-mix, fluorescence labeled RNA oligoribonucleotides (oligos) were diluted in fluorescence polarization buffer (20 mM Tris/HCl (pH 7.4), 150 mM NaCl, 3.0 mM MgCl2, 0.5 mM EDTA, 0.05% (v/v) IGEPAL), mixed for 10 min at 80°C, and then immediately placed on ice for at least 5 min. All RNA oligos were used at a final concentration of 50 nM. Recombinant La protein was diluted in D-buffer (20 mM Tris/ HCl (pH 7.4), 150mM NaCl, 3mM MgCl2, 0.5mM EDTA, 5% glycerol) and placed on ice until use.
La titration was performed at final concentrations of 20, 40, 60, 100, 200, 300, 400, 500, 600 nM La. Three different La concentrations were used for compound studies: 60 nM for fD1 RNA, 200 nM for fPolyU RNA, and 150 nM for TOPf RNA studies. Two μl of diluted compound (diluted in 100% DMSO) or 2 μl 100% DMSO (control reaction) was combined with 8 μl La-mix in a 96-well plate. 10 μl RNA-mix was added, mixed for 2 min, and incubated for 10 min at RT in the dark. Final concentrations in the reaction: 18 mM Tris/HCl (pH 7.4), 135 mM NaCl, 2.7 mM MgCl2, 0.45 mM EDTA, 0.025% (v/v) IGEPAL, 2% glycerol, 10% DMSO). Samples were loaded onto the pre-run gel without any loading buffer. Gels were run at 160 V for 40 min in the dark. The gels were carefully transferred to a clear plastic wrap and scanned using a Typhoon FLA900 imager. The La-RNA complex (La-RNP) formation was quantified using the ImageQuant TL software.
Next we used our established EMSA to test whether compound C2 and C6 can compete against the three RNA oligos: fD1, fPolyU, and TOPf. All of the EMSA reactions were loaded in the following order: lane 1 contains the RNA oligo alone; lane 2 contains the RNA oligo plus La protein at concentration that shifts 50% of the RNA oligo (positive control); lanes 3–9 contain the RNA oligo, La protein and decreasing concentrations of the compound; and lane 10 contains the RNA oligo and the highest compound concentration (negative control).

[5] = system: MRC5 cells; assay: Cell toxicity, CyQUANT cell number, MRC5; format: cell-based, human; details: 48 h, up to 150 μM
Protocol: as §1, §2

[6] = target: T2, La-RRM1+2 (human, UniProt P05455 111-348); assay: EMSA; EMSA: about 20 mM Tris-HCl pH 7.4, 150 mM NaCl, 3 mM MgCl2, 0.5 mM EDTA, IGEPAL, glycerol, 50 nM RNA, RT 10 min (with compounds: 18 mM Tris, 135 mM NaCl, 2.7 mM MgCl2, 0.45 mM EDTA, 0.025% IGEPAL, 2% glycerol, 10% DMSO); FP: 20 mM Tris-HCl pH 7.5, 3 mM MgCl2, 0.5 mM EDTA, 150 mM NaCl, 0.05% IGEPAL, 100 ug/ml BGG, RT 15 min; details: protein: recombinant, tags: His
T2 sequence: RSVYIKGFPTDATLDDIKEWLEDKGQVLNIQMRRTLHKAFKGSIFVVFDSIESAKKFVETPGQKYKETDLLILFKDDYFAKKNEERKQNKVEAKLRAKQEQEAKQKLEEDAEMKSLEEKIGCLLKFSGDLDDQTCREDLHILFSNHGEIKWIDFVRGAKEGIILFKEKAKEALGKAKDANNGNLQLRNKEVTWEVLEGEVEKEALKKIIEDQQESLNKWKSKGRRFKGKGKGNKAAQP

[7] = target: T3, La-WT (La autoantigen, LARP3) (human, UniProt P05455 1-408); assay: as above; details: protein: recombinant, tags: His
T3 sequence: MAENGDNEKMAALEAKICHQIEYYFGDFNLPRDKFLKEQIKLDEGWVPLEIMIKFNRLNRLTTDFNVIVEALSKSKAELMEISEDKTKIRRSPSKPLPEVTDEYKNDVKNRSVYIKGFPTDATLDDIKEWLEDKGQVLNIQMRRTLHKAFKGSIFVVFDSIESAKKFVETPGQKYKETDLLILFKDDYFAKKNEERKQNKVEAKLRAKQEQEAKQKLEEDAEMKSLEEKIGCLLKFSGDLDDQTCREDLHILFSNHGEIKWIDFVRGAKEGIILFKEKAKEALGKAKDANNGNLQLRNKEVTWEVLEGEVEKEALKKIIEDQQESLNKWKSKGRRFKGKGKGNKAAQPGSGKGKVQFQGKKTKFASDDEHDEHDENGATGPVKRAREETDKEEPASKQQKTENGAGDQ

[8] = target: T3, La-WT (La autoantigen, LARP3); assay: competition; EMSA vs TOPf; EMSA: about 20 mM Tris-HCl pH 7.4, 150 mM NaCl, 3 mM MgCl2, 0.5 mM EDTA, IGEPAL, glycerol, 50 nM RNA, RT 10 min (with compounds: 18 mM Tris, 135 mM NaCl, 2.7 mM MgCl2, 0.45 mM EDTA, 0.025% IGEPAL, 2% glycerol, 10% DMSO); FP: 20 mM Tris-HCl pH 7.5, 3 mM MgCl2, 0.5 mM EDTA, 150 mM NaCl, 0.05% IGEPAL, 100 ug/ml BGG, RT 15 min; details: protein: recombinant; tags: His; label: none

Q: Which results are given for `N.N.[Cl][Pt][Cl]` [cisplatin]?
A: IC50 [1]: 12 µM; IC50 ([2]; pretreatment with 50 μM C2.01, 48 hours): 18 µM; IC50 ([2]; vehicle (DMSO) pretreatment, 48 hours): 32 µM

Q: Which “effect on SCC 22B cell numbers” value [3] does the source give for `CCCCOC(=O)c1ccc2c(c1)C1C=CCC1C(C(=O)O)N2` (centres unmarked) [C6.02, 8-(butoxycarbonyl)-3a,4,5,9b-tetrahydro-3H-cyclopenta[c]quinoline-4-carboxylic acid] here?
A: reduced SCC 22B cell numbers even at low concentrations

Q: What about the “competition for La:fD1 interaction (EMSA), in words” value [4] of the same molecule?
A: slightly lower concentrations than C6.00

Q: And the “toxic effect on MRC5 cells (normal fibroblasts)” value [5]?
A: toxic effect

Q: Which results are given for `O=C(O)c1ccccc1C(=O)c1ccc2ccccc2c1O` [C2.02, 2-(1-hydroxy-2-naphthoyl)benzoic acid]?
A: effect on SCC 22B cell numbers [3]: no effect; competition for La:fD1 interaction (EMSA), in words [4]: lower concentration; toxic effect on MRC5 cells (normal fibroblasts) [5]: toxic effect

Q: With `CC(C)COC(=O)c1ccc2c(c1)C1C=CCC1C(C(=O)O)N2` (centres unmarked) [C6.01, 8-(isobutoxycarbonyl)-3a,4,5,9b-tetrahydro-3H-cyclopenta[c]quinoline-4-carboxylic acid] as the molecule, how does the “effect on SCC 22B cell numbers” value [3] read?
A: reduced SCC 22B cell numbers even at low concentrations

Q: And the “selectivity: cancer cell numbers compared to effect on normal MRC5 cells” value ([3]; SCC 22B versus MRC5, 48 h)?
A: preferentially reduced cancer cell numbers

Q: What about the “competition for La:fD1 interaction (EMSA), in words” value [4] of the same molecule?
A: slightly lower concentrations than C6.00

Q: What about the “toxic effect on MRC5 cells (normal fibroblasts)” value [5] of the same molecule?
A: toxic effect

Q: With GCUGCCCAGGAAGAGCCCCAGCCAUGGAACACCAGCUCCUGUGCUGC (structured_RNA) [fD1] as the molecule, how does the Kd ([6]; hairpin (mfold prediction)) read?
A: 0.0817 ± 0.0126 µM

Q: And the Kd ([7]; hairpin (mfold prediction))?
A: 0.085 ± 0.0075 µM

Q: Does GGCCCUUUUCCCACCCCCUAGCGCCGCUGGGCCU (ssRNA) [TOP-mu2] bind [8]?
A: binds

Q: Does UGCUGUUUU (ssRNA) [fPolyU] bind ([6]; no structure predicted)?
A: no binding

Q: And the Kd ([7]; no structure predicted)?
A: 0.138 ± 0.0126 µM

Q: With CCCUUUUCCCACCCCCUAGCGCCGCUGGGCCU (structured_RNA) [TOPf] as the molecule, how does the Kd ([7]; mfold predicted structure) read?
A: 0.147 ± 0.0351 µM

Q: With CCCUUUUCCCACCCCCUAGCGCCGCUGGGCCU (structured_RNA, 5' m7G cap) [capTOPf] as the molecule, how does the Kd [7] read?
A: 0.183 ± 0.0153 µM
